Laboratory results from the supplement of paper PMC13380429.

Tests used:
Settings in all cases: 72 h
Calu-3 [1] = assay: drug sensitivity score (DSS) for viability; higher = more toxic; extreme values may be limits of the assay
Vero E6 [2] = assay: as above
Caco-2 [3] = assay: as above
HepG2 [4] = assay: as above
U2OS [5] = assay: as above
Calu-3 [6] = assay: cell viability relative to DMSO; higher = less toxic
Vero E6 [7] = assay: as above
Caco-2 [8] = assay: as above
HepG2 [9] = assay: as above
U2OS [10] = assay: as above
Calu-3 [11] = assay: relative viability EC50 (midpoint between 100% and the lowest measured viability); higher = less toxic
HepG2 [12] = assay: as above
U2OS [13] = assay: as above
Vero E6 [14] = assay: as above
Caco-2 [15] = assay: as above

SMILES | drug sensitivity score (Calu-3 [1]) | drug sensitivity score (Vero E6 [2]) | drug sensitivity score (Caco-2 [3]) | drug sensitivity score (HepG2 [4]) | drug sensitivity score (U2OS [5]) | cell viability (Calu-3 [6]; 1 nM) [%] | cell viability (Calu-3 [6]; 10 nM) [%] | cell viability (Calu-3 [6]; 100 nM) [%] | cell viability (Calu-3 [6]; 1000 nM) [%] | cell viability (Calu-3 [6]; 10000 nM) [%] | cell viability (Vero E6 [7]; 1 nM) [%] | cell viability (Vero E6 [7]; 10 nM) [%] | cell viability (Vero E6 [7]; 100 nM) [%] | cell viability (Vero E6 [7]; 1000 nM) [%] | cell viability (Vero E6 [7]; 10000 nM) [%] | cell viability (Caco-2 [8]; 1 nM) [%] | cell viability (Caco-2 [8]; 10 nM) [%] | cell viability (Caco-2 [8]; 100 nM) [%] | cell viability (Caco-2 [8]; 1000 nM) [%] | cell viability (Caco-2 [8]; 10000 nM) [%] | cell viability (HepG2 [9]; 1 nM) [%] | cell viability (HepG2 [9]; 10 nM) [%] | cell viability (HepG2 [9]; 100 nM) [%] | cell viability (HepG2 [9]; 1000 nM) [%] | cell viability (HepG2 [9]; 10000 nM) [%] | cell viability (U2OS [10]; 1 nM) [%] | cell viability (U2OS [10]; 10 nM) [%] | cell viability (U2OS [10]; 100 nM) [%] | cell viability (U2OS [10]; 1000 nM) [%] | cell viability (U2OS [10]; 10000 nM) [%] | relative viability EC50 (Calu-3 [11]) [µM] | relative viability EC50 (HepG2 [12]) [µM] | relative viability EC50 (U2OS [13]) [µM] | relative viability EC50 (Vero E6 [14]) [µM] | relative viability EC50 (Caco-2 [15]) [µM]
COc1cc2ncnc(Nc3ccc(Oc4ccccc4)cc3)c2cc1OC [SRC-kinase-inhibitor-I] | 5.4 | 2.6 | 2.1 | 0.1 | 0.4 | 88.9 | 102 | 94 | 89.9 | 33.4 | 103 | 97.2 | 109 | 93.5 | 66.7 | 96.8 | 106 | 98 | 94.7 | 71.1 | 104 | 112 | 104 | 103 | 86.8 | 99.7 | 105 | 99.6 | 103 | 80.8 | 1.98 | > 10 | > 10 | – | –
CCn1c(=O)n([C@H]2CCCN(c3nccc(-c4cc5ccccc5o4)n3)C2)c2ccccc21 [TC-F-2] | 0 | 0 | 1.4 | 3.7 | 0 | 98.8 | 99.6 | 114 | 104 | 98.4 | 103 | 99.5 | 96.1 | 96.6 | 102 | 95.6 | 91.4 | 85.1 | 92 | 84.9 | 96 | 103 | 99.2 | 90.7 | 56.9 | 95.1 | 101 | 96.4 | 98.8 | 96.5 | > 10 | – | > 10 | > 10 | > 10
COc1cc(OC)c2c(=O)[nH]c(-c3cc(C)c(OCCO)c(C)c3)nc2c1 [apabetalone] | 0 | 2.9 | 0 | 0.9 | 0 | 98.5 | 90.2 | 90.2 | 99.4 | 102 | 99.8 | 98.4 | 105 | 93 | 63.8 | 109 | 96.9 | 102 | 101 | 87.6 | 101 | 99.9 | 91.3 | 93.2 | 79.9 | 102 | 102 | 104 | 96.8 | 89.2 | > 10 | > 10 | > 10 | – | > 10
NS(=O)(=O)c1cc(-c2nnn[nH]2)c(NCc2cccs2)cc1Cl [azosemide] | – | 0 | 1.6 | 0 | – | – | – | – | – | – | 103 | 108 | 104 | 106 | 97.1 | 99.4 | 111 | 86.5 | 92.4 | 92.1 | 94.5 | 103 | 103 | 95.7 | 89.6 | – | – | – | – | – | – | > 10 | – | > 10 | > 10
C[C@@]12CCc3occc3[C@H]1CC[C@@]13C[C@@H](CC[C@H]12)[C@@](O)(CO)C3 [cafestol] | 0 | 0 | 0.5 | 1.1 | 0 | 104 | 104 | 107 | 112 | 98.2 | 98.7 | 97.7 | 102 | 98 | 104 | 119 | 100 | 104 | 103 | 79.6 | 83.8 | 96.4 | 78.4 | 104 | 69.3 | 101 | 103 | 94.2 | 98.2 | 94.4 | > 10 | – | > 10 | > 10 | > 10
O=C(O)CCCCN(CCc1ccccc1OCc1ccc(CCc2ccccc2)cc1)Cc1ccc(C(=O)O)cc1 [cinaciguat] | – | – | 0 | 0 | – | – | – | – | – | – | – | – | – | – | – | 110 | 110 | 104 | 86 | 104 | 106 | 110 | 98.9 | 109 | 105 | – | – | – | – | – | – | > 10 | – | – | > 10
O=C(c1ccc(OCCCc2c[nH]cn2)cc1)C1CC1 [ciproxifan] | 0.5 | 0 | 0 | 4.1 | 0 | 93.4 | 101 | 99.9 | 88.2 | 93.1 | 101 | 102 | 101 | 101 | 94.2 | 101 | 97.1 | 91.8 | 94.2 | 88.4 | 106 | 107 | 99.8 | 74.3 | 88.6 | 96.1 | 105 | 96.8 | 95.8 | 97.5 | > 10 | – | > 10 | > 10 | > 10
Nc1ccn([C@@H]2O[C@H](CO)[C@@H](O)[C@@H]2O)c(=O)n1 [cytarabine] | 2.4 | 2.7 | 2.1 | 15.2 | 1.6 | 99.6 | 93.8 | 91.9 | 88.6 | 70.9 | 95.8 | 96.5 | 93.5 | 95.1 | 62.1 | 106 | 97 | 90.7 | 85.9 | 80.6 | 95.2 | 100 | 66.4 | 42.1 | 38.7 | 103 | 94.3 | 96.3 | 96.9 | 72.8 | – | 0.09 | – | – | > 10
